Target: T1, full-length human PKCι (Homo sapiens, UniProt P41743)
T1 construct: Recombinant, full-length human PKCι expressed in Sf21 insect cells is also commercially available; purchased; host or cells: Sf21 insect cells
T1 sequence (P41743 1-596): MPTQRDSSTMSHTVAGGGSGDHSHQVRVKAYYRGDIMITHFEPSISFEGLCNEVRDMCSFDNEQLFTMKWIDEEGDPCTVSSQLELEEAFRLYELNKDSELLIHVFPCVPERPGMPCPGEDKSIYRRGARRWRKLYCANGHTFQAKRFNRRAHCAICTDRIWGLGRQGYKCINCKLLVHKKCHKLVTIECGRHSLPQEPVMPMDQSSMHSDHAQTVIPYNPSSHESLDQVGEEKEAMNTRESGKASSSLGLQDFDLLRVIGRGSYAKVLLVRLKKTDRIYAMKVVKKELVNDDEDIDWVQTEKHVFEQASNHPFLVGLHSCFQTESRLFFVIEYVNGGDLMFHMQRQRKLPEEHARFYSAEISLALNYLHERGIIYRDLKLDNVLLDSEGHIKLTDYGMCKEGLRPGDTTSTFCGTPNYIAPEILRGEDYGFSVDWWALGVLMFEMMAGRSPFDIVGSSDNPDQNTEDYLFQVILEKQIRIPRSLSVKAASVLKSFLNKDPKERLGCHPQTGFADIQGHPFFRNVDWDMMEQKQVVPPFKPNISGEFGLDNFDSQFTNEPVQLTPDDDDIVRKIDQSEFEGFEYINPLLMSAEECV
Assay: PKCι IC50 IMAP assay, full-length PKCι at 150 μM ATP
Format: biochemical
Conditions: read-out: IC50 in IMAP assay against full length PKCi at 150 μM ATP
Procedure, shortened: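 Recombinant full-length human PKCι (Sf21-expressed, typically 15 pM) phosphorylated 100 nM 5FAM-labelled PKCε pseudosubstrate-derived peptide with 150 μM ATP (5× KM^APP) in 18 mM tris-HCl pH7.5, 9 mM MgCl2, EGTA, DTT, 4% DMSO. After 60 min at room temperature, IMAP binding reagent was added for 2 h and fluorescence polarisation read.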

Structure (SMILES)	IC50
C[C@H]1CN(c2nc(-c3ccnc(Nc4ncccc4F)c3)nc3cncc(C4CC4)c23)CCN1 [Example 800, {4-[5-Cyclopropyl-4-((S)-3-methyl-piperazin-1-yl)-pyrido[3,4-d]pyrimidin-2-yl]-pyridin-2-yl}-(3-fluoro-pyridin-2-yl)-amine]	< 100 nM
CC(C)c1ccc(F)c(Nc2cc(-c3nc(N4CCNCC4)c4c(C5CC5)cncc4n3)ccn2)c1 [Example 716, [4-(5-Cyclopropyl-4-piperazin-1-yl-pyrido[3,4-d]pyrimidin-2-yl)-pyridin-2-yl]-(2-fluoro-5-isopropyl-phenyl)-amine]	< 100 nM
COc1cncc2nc(-c3ccnc(Nc4c(F)cc(F)cc4F)c3)nc(N3CCNCC3)c12 [Example 441, [4-(5-Methoxy-4-piperazin-1-yl-pyrido[3,4-d]pyrimidin-2-yl)-pyridin-2-yl]-(2,4,6-trifluoro-phenyl)-amine]	< 100 nM
Fc1cccc(F)c1Nc1cc(-c2nc(N3CCNCC3)c3c(C(F)(F)F)cncc3n2)ccn1 [Example 2193, (2,6-Difluoro-phenyl)-[4-(4-piperazin-1-yl-5-trifluoromethyl-pyrido[3,4-d]pyrimidin-2-yl)-pyridin-2-yl]-amine]	< 100 nM
Fc1ccc(Nc2cc(-c3nc(N4CCNCC4)c4c(C5CC5)cncc4n3)c(F)cn2)cc1 [Example 765, [4-(5-Cyclopropyl-4-piperazin-1-yl-pyrido[3,4-d]pyrimidin-2-yl)-5-fluoro-pyridin-2-yl]-(4-fluoro-phenyl)-amine]	< 100 nM
FC(F)(F)c1cc2c(-c3nc(N4CCSCC4)c4c(C5CC5)cncc4n3)ccnc2[nH]1 [Example 1246, 5-Cyclopropyl-4-thiomorpholin-4-yl-2-(2-trifluoromethyl-1H-pyrrolo[2,3-b]pyridin-4-yl)-pyrido[3,4-d]pyrimidine]	10000 to 40000 nM
COc1cncc2nc(-c3ccncc3)nc(N3CCN[C@@H](C)C3)c12 [Example 44, (3S)-1-[5-methoxy-2-(pyridin-4-yl)-pyrido[3,4-d]-pyrimidin-4-yl]-3-methylpiperazine]	100 to 1000 nM
CN1CCN(c2cccc(Nc3cc(-c4nc(N5CCC[C@@H](O)C5)c5c(C6CC6)cncc5n4)ccn3)n2)CC1 [Example 781, (R)-1-(5-Cyclopropyl-2-{2-[6-(4-methyl-piperazin-1-yl)-pyridin-2-ylamino]-pyridin-4-yl}-pyrido[3,4-d]pyrimidin-4-yl)-piperidin-3-ol]	100 to 1000 nM
c1cc(Nc2cc(-c3nc(N4CCNCC4)c4c(C5CC5)cncc4n3)ccn2)cc(C2CC2)c1 [Example 734, (3-Cyclopropyl-phenyl)-[4-(5-cyclopropyl-4-piperazin-1-yl-pyrido[3,4-d]pyrimidin-2-yl)-pyridin-2-yl]-amine]	< 100 nM
FC(F)(F)c1cc2c(-c3nc(NC4CCNCC4(F)F)c4c(C5CC5)cncc4n3)ccnc2[nH]1 (centres unmarked) [Example 2155, [5-Cyclopropyl-2-(2-trifluoromethyl-1H-pyrrolo[2,3-b]pyridin-4-yl)-pyrido[3,4-d]pyrimidin-4-yl]-(3,3-difluoro-piperidin-4-yl)-amine]	100 to 1000 nM
c1cc(-c2nc(N3CCCNCC3)c3ccncc3n2)ccn1 [Example 33, 1-[2-(pyridin-4-yl)-pyrido[3,4-d]-pyrimidin-4-yl]-1,4-diazepane]	1000 to 10000 nM
N[C@H](CNc1nc(-c2ccncc2)nc2c(-c3cccc4ccoc34)nccc12)Cc1ccccc1 [Example 110, N-[(2S)-2-amino-3-phenylpropyl]-8-(1-benzofuran-7-yl)-2-(pyridin-4-yl)pyrido[3,4-d]pyrimidin-4-amine]	100 to 1000 nM
COc1ccc(F)c(Nc2cc(-c3nc(N4CCNCC4)c4c(C5CC5)cncc4n3)ccn2)n1 [Example 762, [4-(5-Cyclopropyl-4-piperazin-1-yl-pyrido[3,4-d]pyrimidin-2-yl)-pyridin-2-yl]-(3-fluoro-6-methoxy-pyridin-2-yl)-amine]	< 100 nM
c1ccc(-n2cc(Nc3cc(-c4nc(N5CCNCC5)c5c(C6CC6)cncc5n4)ccn3)cn2)cc1 [Example 492, [4-(5-cyclopropyl-4-piperazin-1-yl-pyrido[3,4-d]pyrimidin-2-yl)-pyridin-2-yl]-(1-phenyl-1H-pyrazol-4-yl)-amine]	< 100 nM
c1cc(-c2nc(N3CCNCC3)c3c(C4CC4)cncc3n2)c2cc(C3CC3)[nH]c2n1 [Example 1223, 5-Cyclopropyl-2-(2-cyclopropyl-1H-pyrrolo[2,3-b]pyridin-4-yl)-4-piperazin-1-yl-pyrido[3,4-d]pyrimidine]	< 100 nM
Fc1cc(Cl)cnc1Nc1cc(-c2nc(N3CCNCC3)c3c(C4CC4)cncc3n2)ccn1 [Example 2171, (5-Chloro-3-fluoro-pyridin-2-yl)-[4-(5-cyclopropyl-4-piperazin-1-yl-pyrido[3,4-d]pyrimidin-2-yl)-pyridin-2-yl]-amine]	< 100 nM
COc1ccc(Cl)c(Nc2cc(-c3nc(N4CCNCC4)c4c(C5CC5)cncc4n3)ccn2)c1 [Example 592, (2-Chloro-5-methoxy-phenyl)-[4-(5-cyclopropyl-4-piperazin-1-yl-pyrido[3,4-d]pyrimidin-2-yl)-pyridin-2-yl]-amine]	< 100 nM
CC(C)Cn1cc(-c2nccc3c(NC[C@@H](N)Cc4ccccc4)nc(-c4ccncc4)nc23)cn1 [Example 101, N-[(2S)-2-amino-3-phenylpropyl]-8-[1-(2-methyl-propyl)-1H-pyrazol-4-yl]-2-(pyridin-4-yl)-pyrido[3,4-d]-pyrimidin-4-amine]	1000 to 10000 nM
Oc1nc(-c2ccnc(Nc3cnn(CC4CCNCC4)c3)c2)nc2cnccc12 [Example 499, 2-[2-(1-Piperidin-4-ylmethyl-1H-pyrazol-4-ylamino)-pyridin-4-yl]-pyrido[3,4-d]pyrimidin-4-ol]	10000 to 40000 nM
FC(F)(F)c1cccc(Nc2cc(-c3nc(N4CCNCC4)c4c(C5CC5)cncc4n3)ccn2)n1 [Example 534, [4-(5-Cyclopropyl-4-piperazin-1-yl-pyrido[3,4-d]pyrimidin-2-yl)-pyridin-2-yl]-(6-trifluoromethyl-pyridin-2-yl)-amine]	< 100 nM
CS(=O)(=O)C[C@H]1CN(c2nc(-c3ccnc(Nc4ccccc4)c3)nc3cncc(C4CC4)c23)CCN1 [Example 769, {4-[5-Cyclopropyl-4-((R)-3-methanesulfonyl-methyl-piperazin-1-yl)-pyrido[3,4-d]pyrimidin-2-yl]-pyridin-2-yl}-phenyl-amine]	< 100 nM
Fc1ccc(Nc2cc(-c3nc(N4CCNCC4)c4c(Cl)cncc4n3)ccn2)nc1 [Example 258, [4-(5-Chloro-4-piperazin-1-yl-pyrido[3,4-d]pyrimidin-2-yl)-pyridin-2-yl]-(5-fluoro-pyridin-2-yl)-amine]	< 100 nM
OCCN1CCN(c2nc(-c3ccnc(Nc4ccccc4)c3)nc3cncc(C4CC4)c23)CC1 [Example 606, 2-{4-[5-Cyclopropyl-2-(2-phenylamino-pyridin-4-yl)-pyrido[3,4-d]pyrimidin-4-yl]-piperazin-1-yl}-ethanol]	100 to 1000 nM
Cn1nccc1-c1ccc(Nc2cc(-c3nc(N4CCNCC4)c4c(C5CC5)cncc4n3)ccn2)c(F)c1 [Example 2055, [4-(5-Cyclopropyl-4-piperazin-1-yl-pyrido[3,4-d]pyrimidin-2-yl)-pyridin-2-yl]-[2-fluoro-4-(2-methyl-2H-pyrazol-3-yl)-phenyl]-amine]	< 100 nM
O=C1CC(Nc2nc(-c3ccnc(Nc4c(F)cccc4F)c3)nc3cncc(C4CC4)c23)CCN1 (centres unmarked) [Example 2076, 4-{5-Cyclopropyl-2-[2-(2,6-difluoro-phenylamino)-pyridin-4-yl]-pyrido[3,4-d]pyrimidin-4-ylamino}-piperidin-2-one]	100 to 1000 nM
Fc1cccc(F)c1Nc1cc(-c2nc(NC3CCCNC3)c3c(C4CC4)cncc3n2)ccn1 (centres unmarked) [Example 842, {5-Cyclopropyl-2-[2-(2,6-difluoro-phenylamino)-pyridin-4-yl]-pyrido[3,4-d]pyrimidin-4-yl}-piperidin-3-yl-amine]	< 100 nM
FC[C@H]1CN(c2nc(-c3ccnc(Nc4cccnc4F)c3)nc3cncc(C4CC4)c23)CCN1 [Example 531, {4-[5-Cyclopropyl-4-((R)-3-fluoromethyl-piperazin-1-yl)-pyrido[3,4-d]-pyrimidin-2-yl]-pyridin-2-yl}-(2-fluoro-pyridin-3-yl)-amine]	< 100 nM
CN1CCN(c2cccc(Nc3cc(-c4nc(N5CCN[C@@H](C(F)(F)F)C5)c5c(C6CC6)cncc5n4)ccn3)c2)CC1 [Example 2052, {4-[5-Cyclopropyl-4-((R)-3-trifluoromethyl-piperazin-1-yl)-pyrido[3,4-d]pyrimidin-2-yl]-pyridin-2-yl}-[3-(4-methyl-piperazin-1-yl)-phenyl]-amine]	< 100 nM
Clc1cccc(Nc2cc(-c3nc(N4CCNCC4)c4c(C5CC5)cncc4n3)ccn2)n1 [Example 514, (6-Chloro-pyridin-2-yl)-[4-(5-cyclopropyl-4-piperazin-1-yl-pyrido[3,4-d]pyrimidin-2-yl)-pyridin-2-yl]-amine]	< 100 nM

— patent US9914730B2, “Azaquinazoline inhibitors of Atypical protein Kinase C” (Ignyta, Inc., priority 2012, dated 2018)
